Test results taken from the supplement of paper PMC10307832.

How the values were obtained:
Test in all cases: relative viability (nuclei count vs DMSO), 5 days (fraction); higher = more cells survive
Kobe2602 + Lapatinib = compound: C1=CC(=CC=C1NC(=S)NNC2=C(C=C(C=C2[N+](=O)[O-])C(F)(F)F)[N+](=O)[O-])F [Kobe2602] + CS(=O)(=O)CCNCc1ccc(-c2ccc3ncnc(Nc4ccc(OCc5cccc(F)c5)c(Cl)c4)c3c2)o1 [Lapatinib] (partner 2 µM)
Outline: (§1)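 Medians of duplicate plates are given as relative viability. That measure is the nuclei count in treated wells divided by the count in vehicle wells. Counts were taken on 4× images of lung cancer cell lines in 1536-well plates, 5 days after pin-tool dosing the day after seeding with one drug alone or a fixed anchor-drug dose plus five library-drug doses (not always all listed) in √10 steps.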

Kobe2602 + Pictilisib = compound: C1=CC(=CC=C1NC(=S)NNC2=C(C=C(C=C2[N+](=O)[O-])C(F)(F)F)[N+](=O)[O-])F [Kobe2602] + CS(=O)(=O)N1CCN(Cc2cc3nc(-c4cccc5[nH]ncc45)nc(N4CCOCC4)c3s2)CC1 [Pictilisib] (partner 1 µM)
Outline: as §1

Zosuquidar + Pictilisib = compound: O[C@@H](COc1cccc2ncccc12)CN1CCN([C@@H]2c3ccccc3[C@@H]3[C@H](c4ccccc42)C3(F)F)CC1 [Zosuquidar] + CS(=O)(=O)N1CCN(Cc2cc3nc(-c4cccc5[nH]ncc45)nc(N4CCOCC4)c3s2)CC1 [Pictilisib] (partner 1 µM)
Outline: as §1

Zosuquidar + Decitabine = compound: O[C@@H](COc1cccc2ncccc12)CN1CCN([C@@H]2c3ccccc3[C@@H]3[C@H](c4ccccc42)C3(F)F)CC1 [Zosuquidar] + Nc1ncn([C@H]2C[C@H](O)[C@@H](CO)O2)c(=O)n1 [Decitabine] (partner 2 µM)
Outline: as §1

Cell Line | relative viability (Kobe2602 + Lapatinib; first compound 0.2 µM) | relative viability (Kobe2602 + Lapatinib; first compound 0.6325 µM) | relative viability (Kobe2602 + Lapatinib; first compound 2 µM) | relative viability (Kobe2602 + Lapatinib; first compound 6.325 µM) | relative viability (Kobe2602 + Lapatinib; first compound 20 µM) | relative viability (Kobe2602 + Pictilisib; first compound 0.2 µM) | relative viability (Kobe2602 + Pictilisib; first compound 0.6325 µM) | relative viability (Kobe2602 + Pictilisib; first compound 2 µM) | relative viability (Kobe2602 + Pictilisib; first compound 6.325 µM) | relative viability (Kobe2602 + Pictilisib; first compound 20 µM) | relative viability (Zosuquidar + Pictilisib; first compound 0.01 µM) | relative viability (Zosuquidar + Pictilisib; first compound 0.03162 µM) | relative viability (Zosuquidar + Pictilisib; first compound 0.1 µM) | relative viability (Zosuquidar + Pictilisib; first compound 0.3162 µM) | relative viability (Zosuquidar + Pictilisib; first compound 1 µM) | relative viability (Zosuquidar + Decitabine; first compound 0.01 µM) | relative viability (Zosuquidar + Decitabine; first compound 0.03162 µM) | relative viability (Zosuquidar + Decitabine; first compound 0.1 µM) | relative viability (Zosuquidar + Decitabine; first compound 0.3162 µM) | relative viability (Zosuquidar + Decitabine; first compound 1 µM)
201T | 0.986 | 1.1 | 1.07 | 1.01 | 1.04 | 0.69 | 0.718 | 0.672 | 0.686 | 0.697 | 0.659 | 0.683 | 0.573 | 0.677 | 0.665 | 0.848 | 0.858 | 0.837 | 0.867 | 0.864
A549 | 0.922 | 0.978 | 0.88 | 1.05 | 0.881 | – | 0.476 | 0.487 | 0.524 | 0.514 | 0.532 | 0.497 | 0.494 | 0.487 | 0.496 | 0.264 | 0.116 | – | 0.318 | 0.301
A-427 | 0.995 | 1.02 | 1.01 | 1.03 | 0.953 | 0.742 | 0.925 | 0.741 | 0.774 | 0.98 | 0.665 | 0.538 | 0.567 | 0.91 | 0.77 | 0.582 | 0.561 | 0.584 | 0.653 | 0.557
ABC-1 | 1.5 | 1.24 | 1.11 | 1.22 | 1.27 | 0.821 | 1.03 | 0.768 | 0.923 | 0.868 | 0.756 | 0.661 | 0.724 | 0.743 | 0.679 | 1.27 | 1.15 | 1.15 | 1.24 | 1.15
BEN | 0.671 | 0.935 | 0.782 | 0.69 | 0.811 | 0.607 | 0.581 | 0.733 | 0.523 | 0.645 | 0.665 | 0.606 | 0.482 | 0.534 | 0.515 | 0.695 | 0.664 | 0.659 | 0.822 | 0.787
CAL-12T | 0.676 | 0.717 | 0.681 | 0.627 | 0.696 | 0.59 | 0.556 | 0.394 | 0.387 | 0.548 | 0.349 | 0.494 | – | 0.533 | 0.423 | – | – | – | – | –
COR-L23 | 0.856 | 1.05 | 1.02 | 0.876 | 0.907 | 0.766 | 0.695 | 0.811 | 0.837 | 0.832 | 0.76 | 0.658 | 0.679 | 1.01 | 0.889 | 0.501 | 0.421 | 0.511 | 0.469 | 0.468
COR-L 105 | 0.369 | 0.381 | 0.379 | 0.38 | 0.401 | 0.434 | 0.433 | 0.377 | 0.455 | 0.387 | 0.404 | 0.383 | 0.418 | 0.492 | 0.351 | 0.645 | 0.712 | 0.636 | 0.716 | 0.652
Calu-6 | 1.08 | 1.14 | 1.1 | 1.04 | 0.995 | 0.935 | 0.931 | 0.856 | 0.885 | 0.882 | 0.855 | 0.942 | 1.02 | 0.976 | 0.918 | – | – | – | – | –
ChaGo-K-1 | – | – | – | – | – | 0.761 | 1.05 | 0.625 | 0.725 | 0.732 | 0.858 | 0.563 | 1.27 | 0.882 | 0.637 | 0.552 | 0.448 | 0.534 | 0.536 | 0.477
EBC-1 | 0.211 | 0.201 | 0.204 | 0.227 | 0.208 | 0.365 | 0.556 | 0.402 | 0.378 | 0.437 | 0.41 | 0.52 | 0.395 | 0.458 | 0.377 | – | – | – | – | –
EKVX | 0.207 | 0.223 | 0.221 | 0.184 | 0.267 | 0.461 | 0.422 | 0.386 | 0.412 | 0.426 | 0.427 | 0.446 | 0.346 | 0.455 | 0.444 | 0.299 | 0.414 | – | 0.334 | 0.36
EMC-BAC-2 | 0.89 | 0.935 | 0.904 | 0.904 | 0.909 | 0.503 | 0.6 | 0.548 | 0.569 | 0.558 | 0.511 | 0.524 | 0.47 | 0.635 | 0.508 | 0.915 | 0.991 | 0.9 | 1.14 | 0.964
EPLC-272H | 1.05 | 0.956 | 0.916 | 0.853 | 1.01 | 0.321 | 0.458 | 0.294 | 0.345 | 0.374 | 0.308 | 0.344 | 0.311 | 0.272 | 0.35 | 0.393 | 0.429 | 0.4 | 0.392 | 0.376
H3255 | 0.244 | 0.301 | 0.234 | 0.25 | 0.239 | 0.533 | 0.451 | 0.509 | 0.486 | 0.509 | 0.49 | 0.565 | 0.412 | 0.526 | 0.42 | 0.559 | 0.592 | 0.497 | 0.696 | 0.716
HARA | 0.677 | 0.844 | 0.689 | 0.697 | 0.814 | 0.445 | 0.415 | 0.375 | 0.345 | 0.495 | 0.589 | 0.404 | 0.312 | 0.5 | 0.49 | 0.474 | 0.542 | 0.607 | 0.492 | 0.629
HCC-15 | 0.856 | 0.937 | 0.81 | 0.863 | 0.809 | 0.816 | 0.848 | 0.738 | 0.78 | 0.707 | 0.686 | 0.778 | 0.753 | 0.801 | 0.854 | 0.64 | 0.575 | 0.599 | 0.711 | 0.635
